Assay results from PubChem BioAssay (NCI).
Several values for one entry are separate records, joined by “and”; a condition that tells them apart may be missing. Equal entries are not always repeated.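 Assay format: 96-well plates, 48-hour exposure. GI50 is the concentration that inhibits growth by half. At the TGI there is no net growth.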

What was measured:
Assay in all cases: DTP human tumour cell line panel, 48 h
DLD-1 colon = test system: DLD-1 colon
SNB-75 CNS = test system: SNB-75 CNS
HL-60(TB) leukemia = test system: HL-60(TB) leukemia
HOP-18 NSCLC = test system: HOP-18 NSCLC
NCI-H522 lung = test system: NCI-H522 lung
NCI/ADR-RES ovarian = test system: NCI/ADR-RES ovarian
TK-10 renal = test system: TK-10 renal
MDA-MB-435 = test system: MDA-MB-435
T-47D breast = test system: T-47D breast
MDA-MB-231 breast = test system: MDA-MB-231 breast
HS 578T breast = test system: HS 578T breast

SMILES	TGI (DLD-1 colon) [µM]	TGI (SNB-75 CNS)	TGI (HL-60(TB) leukemia)	TGI (HOP-18 NSCLC) [µM]	TGI (NCI-H522 lung)	TGI (NCI/ADR-RES ovarian) [µM]	TGI (TK-10 renal)	TGI (MDA-MB-435) [µM]	TGI (T-47D breast) [µM]	TGI (MDA-MB-231 breast) [µM]	TGI (HS 578T breast) [µM]	GI50 (SNB-75 CNS)	GI50 (HL-60(TB) leukemia)	GI50 (NCI-H522 lung)	GI50 (TK-10 renal) [µM]	GI50 (MDA-MB-435) [µM]	GI50 (T-47D breast) [µM]	GI50 (MDA-MB-231 breast) [µM]	GI50 (NCI/ADR-RES ovarian) [µM]	GI50 (HS 578T breast) [µM]
CCOC(=O)C1=C(C(C)=O)CSC(c2ccccc2)=N1	> 100	> 100 µM	> 100 µM	> 100	> 100 µM	> 100														
C=C1C(=O)OC2/C=C(\CO)C(OC(C)=O)CC(O)/C(C)=C/C(OC(=O)C(C)CC)C12 (stereo unspecified)	26.5	69.3 µM and 96.3 µM	39.6 µM and 30.9 µM	38.5	15.6 µM and 20.3 µM	> 100	36 µM and 38.7 µM	47.6	30.7	32.7	> 100									
C/C(=N/NC(N)=S)c1ccc2ccccc2c1	> 100	96.3 µM	> 100 µM		41 µM		> 100 µM													
COc1cc(/C=C/C(=O)O)ccc1C(=O)O/C=C/c1ccccc1	> 100	> 100 µM	> 100 µM	> 100	> 100 µM	> 100														
CCN(CC)CCNc1ccc2nnn3c4ccc(OC)cc4c(=O)c1c23	22	21 µM	22.3 µM	23.2	19.6 µM		23.9 µM													
CSC1CC2C(CC1(C)O)C2(C)C (stereo unspecified)	> 100	> 100 µM	70.5 µM and > 100 µM		> 100 µM		> 100 µM					> 100 µM and 47.9 µM	19 µM and > 100 µM	33.8 µM and > 100 µM						
CCC(C(=O)O)c1ccc(OCc2ccccc2)cc1 (stereo unspecified)	> 100	> 100 µM	> 100 µM		> 100 µM		> 100 µM													
NC(=O)C(=O)N/N=C1/c2ccccc2CC1C1(O)C(=O)Nc2c(Cl)cc(Cl)cc21 (stereo unspecified)	> 100	> 100 µM	> 100 µM	> 100	> 100 µM		> 100 µM													
CCOC1CC(=O)c2c(Br)sc(Br)c21 (stereo unspecified)		35.7 µM	48.6 µM		52.7 µM	> 100	46.4 µM	33.6	44.1	35.9	90.6									
COc1cc(/C=C2\C(=O)N(C(=O)Cc3ccccc3)N=C2C)ccc1O	> 100	> 100 µM	> 100 µM	> 100	> 100 µM		> 100 µM													
COc1cc2c(cc1OC)C(N(C)C)C(c1ccccc1)=C2Cl (stereo unspecified)	32.3	48.7 µM	65.8 µM	> 100	21.7 µM		> 100 µM													
CN(C)C(CN)CC1=C(CC(CN)N(C)C)CCC1 (stereo unspecified)	> 100	> 100 µM	> 100 µM	> 100	> 100 µM	> 100														
CN(C)c1nc(=NCc2ccncc2)ss1		34.7 µM	47 µM		> 100 µM	> 100	> 100 µM	> 100	> 51.8	> 54	70.3		14.2 µM							
COc1ccc2c(c1)O/C(=C\c1cccc(OCC(=O)Nc3nc4c(s3)CCCC4)c1)C2=O		54.9 µM	18.5 µM		13.9 µM	> 100	> 100 µM	> 100	> 100	> 53.9	> 100	11.5 µM	3.32 µM	3.79 µM	> 100	> 43.3	6.39	6.58	60.8	35.1
CC(CC(C#N)(c1ccccc1)c1ccccc1)N1CCCCC1 (stereo unspecified)		> 100 µM	42.3 µM		36.7 µM	> 100	46.5 µM	49.4	> 100	63.8	79.9									
CCC1=CCC23C(=O)C=CC(=O)C2(C1)C(=O)c1cccc(OC)c1C3=O (stereo unspecified)		33.5 µM	7.36 µM		> 100 µM	59.5	33.5 µM	30.8	22.6	29.8	57.3									
COc1ccccc1NC(=O)CC(=O)N1N=C(C)C(N=Nc2ccc(S(N)(=O)=O)cc2)C1=O (stereo unspecified)	> 100	> 100 µM		> 100	> 100 µM		> 100 µM													
